SMILES strings stand for the structures.

Data set [1] can be described thus: Microsomal stability assay, human liver microsomes (HLM). The conditions noted are these: 0.5 mg/mL protein, 1 μM substrate, 37° C. It counts as in vitro ADME. In a few lines: (§1)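 Half-life and CLint come from the ln(% remaining)–time slope, with remaining compound quantified by LC-MS/MS after ice-cold solvent quench of timed samples. Incubations used 1 μM test compound and 0.5 mg·mL^−1 human or mouse liver microsomal protein at 37° C.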
Background: Liver microsomes are vesicles of endoplasmic reticulum, rich in cytochrome P450 enzymes.

In data set [2] the test system is BRAF monomers in A375 cells. Put plainly: A375 AlphaLISA SureFire pERK1/2 cellular assay (monomer). The note with it: Homo sapiens, A-375; A375 cells, 1 hr; read-out: pERK A375 (1 hr) pIC50 (converted). It counts as cell-based. In a few lines:
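BRAF^V600E A375 melanoma cells seeded at 30,000/well in DMEM with 10% FBS, dosed without medium exchange in a 10-point series from 10 μM at 1/2-log steps, 1 h at 37 °C. Phospho-ERK1/2 (Thr202/Tyr204) measured in lysates by AlphaLISA SureFire; absolute IC50 relative to DMSO control.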

Data set [3] is described as follows: Plasma protein binding assay, mouse plasma (mPPB). It counts as in vitro ADME. The conditions noted are these: 5 μM, equilibrium dialysis 4 hours at 37° C. In a few lines: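 Equilibrium dialysis of 5 μM compound in previously frozen human or mouse plasma against phosphate buffer, 4 h at 37 °C. Both chambers quantified by LC-MS/MS; % free = (1−((PC−PF)/PC))×100.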

A short description of data set [4]: Microsomal stability assay, mouse liver microsomes (MLM). The note with it: 0.5 mg/mL protein, 1 μM substrate, 37° C. It is filed as in vitro ADME. In a few lines:
as §1

Data set [5] has as its system constitutive ERK phosphorylation in WiDr cells. As to the kind of experiment: WiDr AlphaLISA SureFire pERK1/2 cellular assay. It is filed as cell-based, human. The note with it: Homo sapiens; WiDr cells, 2 hr, Abs; read-out: pERK WiDr (2 hr) Abs pIC50 (converted). Here is the method: The human HCT-116 colorectal carcinoma cell line (ATCC CCL-247) endogenously expresses the KRAS^G13D mutation, which leads to constitutive activation of the MAP kinase pathway and phosphorylation of ERK. […] Assay read outs took place 2 or 24 hours after dosing with compounds. On the first day, HCT-116 cells were harvested, resuspended in growth medium (McCoys5A with Glutamax (Life Technologies 36600021) and 10% heat-inactivated fetal bovine serum (Sigma F9665)), and counted. Cells were plated in 100 μl per well in each well of a 96-well culture dish (Sigma CLS3598) to a final density of 30,000 (2 hr read) or 15,000 (24 hr read) cells per well and incubated over night at 37° C. and 5% CO2. On day 2, the growth medium was exchanged for dosing medium (McCoys5A with Glutamax (Life Technologies 36600021) and 1% heat-inactivated fetal bovine serum (Sigma F9665)) and the cells were dosed with compounds to produce a 10-point dose response, where the top concentration was 1 μM and subsequent concentrations were at 1/3 log dilution intervals. A matched DMSO control was included. The cells were subsequently incubated for either 2 or 24 hours at 37° C. and 5% CO2. After incubation, media was removed and the cells were incubated with lysis buffer containing phosphatase inhibitors for 15 minutes at room temperature. Cell lysates were transferred to a 12 area 96 well white Optiplate™ (Perkin Elmer 6005569) and incubated with anti-mouse IgG acceptor beads, a biotinylated anti-ERK1/2 rabbit antibody recognizing both phosphorylated and non-phosphorylated ERK1/2, a mouse antibody targeted to the Thr202/Tyr204 epitope and recognizing phosphorylated ERK proteins only, and streptavidin-coated donor beads. The biotinylated antibody binds to the streptavidin-coated donor beads and the phopsho-ERK1/2 antibody binds to the acceptor beads. Plates were read on an EnVision reader (Perkin Elmer) and excitation of the beads at 680 nm with a laser induced the release of singlet oxygen molecules from the donor beads that trigger energy transfer to the acceptor beads in close proximity, producing a signal that can be measured at […]. Both antibodies bound to phosphorylated ERK proteins, bringing the donor and acceptor beads into close proximity. All data were analyzed using the Dotmatics or GraphPad Prism software packages. Inhibition of ERK phosphorylation was assessed by determination of the absolute IC50 value, which is defined as the concentration of compound required to decrease the level of phosphorylated ERK proteins by 50% when compared to DMSO control.
WiDr AlphaLISA SureFire pERK1/2 Cellular Assay
The human WiDr colorectal adenocarcinoma cell line (ATCC CCL-218) endogenously expresses the BRAF^V600E mutation, which leads to constitutive activation of the MAP kinase pathway and phosphorylation of ERK. […] The main procedure is essentially the same as for HCT-116 cells (above), with the following adjustments to the growth medium (Eagle's Minimum Essential Medium (Sigma M2279) with 1× Glutamax (Life Technologies 35050038), 1× Sodium-Pyruvate (Sigma S8636), and 10% heat-inactivated fetal bovine serum (Sigma F9665)), the dosing medium (Eagle's Minimum Essential Medium (Sigma M2279) with 1× Glutamax (Life Technologies 35050038), 1× Sodium-Pyruvate (Sigma S8636), and 1% heat-inactivated fetal bovine serum (Sigma F9665)), and the seeding densities (2 hr: 50,000 cells per well; 24 hr: 35,000 cells per well). Moreover, the compounds were dosed in 1/2 log dilution intervals with the top concentration of 10 μM.

Take `Cc1cc(-c2c[nH]c(C3COc4ccc(Oc5ccnc6c5CCC(=O)N6)cc4C3)n2)n(C2CC2)n1` (stereo not drawn) [Compound 114, 5-[3-[4-(2-cyclopropyl-5-methyl-pyrazol-3-yl)-1H-imidazol-2-yl]chroman-6-yl]oxy-3,4-dihydro-1H-1,8-naphthyridin-2-one]: the values for the microsomal CLint at 1 μM in data set [1] and in data set [4] were 38.5 µL/min/mg and 12.6 µL/min/mg, respectively. Further, the IC50 in data set [2] is 2.57 µM; in data set [5] it was 1.35 µM. In addition, in data set [3], the “mPPB (% free)” value amounted to 2.0 % free.
On to `Cc1cc(-c2c[nH]c(C3COc4ccc(Oc5ccnc6c5CCC(=O)N6)cc4C3)n2)ccn1` (stereo not drawn) [Compound 117, 5-[3-[4-(2-methyl-4-pyridyl)-1H-imidazol-2-yl]chroman-6-yl]oxy-3,4-dihydro-1H-1,8-naphthyridin-2-one], for which the values for the microsomal CLint at 1 μM in data set [1] and in data set [4] were 43.3 µL/min/mg and 13.4 µL/min/mg, respectively. In addition, the IC50 in data set [2] is 0.724 µM; in data set [5], 0.589 µM. The “mPPB (% free)” value in data set [3] was found to be 2.3 % free.
In the case of `CCc1cc(-c2c[nH]c(C3COc4ccc(Oc5ccnc6c5CCC(=O)N6)cc4C3)n2)ccn1` (stereo not drawn) [Compound 118, 5-[3-[4-(2-ethyl-4-pyridyl)-1H-imidazol-2-yl]chroman-6-yl]oxy-3,4-dihydro-1H-1,8-naphthyridin-2-one], the microsomal CLint (commonly the rate of metabolic loss divided by the concentration) at 1 μM turned out to be 81.2 µL/min/mg in data set [1] and 40 µL/min/mg in data set [4]. For the same compound, the results for the IC50 in data set [2] and in data set [5] were 0.631 µM and 0.398 µM, respectively. Besides, the “mPPB (% free)” value in data set [3] came to 1.0 % free.
On to `COc1csc(-c2c[nH]c(C3COc4ccc(Oc5ccnc6c5CCC(=O)N6)cc4C3)n2)c1` (stereo not drawn) [Compound 122, 5-[3-[5-(4-methoxy-2-thienyl)-1H-imidazol-2-yl]chroman-6-yl]oxy-3,4-dihydro-1H-1,8-naphthyridin-2-one], for which the microsomal CLint at 1 μM in data set [1] turned out to be 80.3 µL/min/mg; in data set [4] it was 70.8 µL/min/mg. In addition, the IC50 in data set [2] was 0.288 µM; in data set [5], 0.355 µM. Further, in data set [3], the “mPPB (% free)” value came out at 0.21 % free.
On to `COc1ccsc1-c1c[nH]c(C2COc3ccc(Oc4ccnc5c4CCC(=O)N5)cc3C2)n1` (stereo not drawn) [Compound 123], for which the microsomal CLint at 1 μM came to 97.5 µL/min/mg in data set [1] and 126 µL/min/mg in data set [4]. Moreover, the IC50 in data set [2] is 0.0282 µM; in data set [5], 0.0339 µM. Moreover, the “mPPB (% free)” value in data set [3] is on record as 0.25 % free.
Turning to `CCn1nc(C)cc1-c1c[nH]c(C2COc3ccc(Oc4ccnc5c4CCC(=O)N5)cc3C2)n1` (stereo not drawn) [Compound 124, 5-[3-[4-(2-ethyl-5-methyl-pyrazol-3-yl)-1H-imidazol-2-yl]chroman-6-yl]oxy-3,4-dihydro-1H-1,8-naphthyridin-2-one], the microsomal CLint at 1 μM in data set [1] came to 65.8 µL/min/mg; in data set [4] it was 28.2 µL/min/mg. The IC50 was 1.07 µM in data set [2] and 0.661 µM in data set [5]. Also, the “mPPB (% free)” value in data set [3] turned out to be 3.9 % free.
For `Cc1cc(-c2c[nH]c(C3COc4ccc(Oc5ccnc6c5CCC(=O)N6)cc4C3)n2)n(CC(F)(F)F)n1` (stereo not drawn) [Compound 126, 5-[3-[4-[5-methyl-2-(2,2,2-trifluoroethyl)pyrazol-3-yl]-1H-imidazol-2-yl]chroman-6-yl]oxy-3,4-dihydro-1H-1,8-naphthyridin-2-one], the results for the microsomal CLint at 1 μM in data set [1] and in data set [4] were 121 µL/min/mg and 55.7 µL/min/mg, respectively. The IC50 in data set [2] is 0.794 µM; in data set [5], 1.02 µM. Also, the “mPPB (% free)” value in data set [3] is recorded as 0.7 % free.
Take `Cn1ncc2ccc(-c3c[nH]c(C4COc5ccc(Oc6ccnc7c6CCC(=O)N7)cc5C4)n3)cc21` (stereo not drawn) [Compound 130, 5-[3-[4-(1-methylindazol-6-yl)-1H-imidazol-2-yl]chroman-6-yl]oxy-3,4-dihydro-1H-1,8-naphthyridin-2-one]: the results for the intrinsic metabolic clearance (microsomal CLint) at 1 μM in data set [1] and in data set [4] were 23.6 µL/min/mg and 23.5 µL/min/mg, respectively. Further, the figures for the IC50 in data set [2] and in data set [5] were 1 µM and 0.603 µM, respectively. Moreover, the “mPPB (% free)” value in data set [3] is 0.2 % free.
`O=C1CCc2c(Oc3ccc4c(c3)CC(c3nc(C5CCOCC5)c[nH]3)CO4)ccnc2N1` (stereo not drawn) [Compound 132, 5-[3-(4-tetrahydropyran-4-yl-1H-imidazol-2-yl)chroman-6-yl]oxy-3,4-dihydro-1H-1,8-naphthyridin-2-one]: the microsomal CLint at 1 μM came out at 20.7 µL/min/mg in data set [1] and 9.3 µL/min/mg in data set [4]. In addition, the figures for the IC50 in data set [2] and in data set [5] were 0.759 µM and 0.832 µM, respectively. Also, the “mPPB (% free)” value in data set [3] is listed as 10.1 % free.
On the same counts, the results for `O=C1CCc2c(Oc3ccc4c(c3)CC(c3nc5ccncc5[nH]3)CO4)ccnc2N1` (stereo not drawn) [Compound 134, 5-[3-(3H-imidazo[4,5-c]pyridin-2-yl)chroman-6-yl]oxy-3,4-dihydro-1H-1,8-naphthyridin-2-one] are 13.6 µL/min/mg, 72.4 µL/min/mg, more than 1 µM, 6.17 µM and 9.5 % free.
For `O=C(Nc1cc(Oc2ccc3c(c2)CC(c2nc(-c4ccccc4)c[nH]2)CO3)ccn1)C1CC1(F)F` (stereo not drawn) [Compound 137, 2,2-difluoro-N-[4-[3-(4-phenyl-1H-imidazol-2-yl)chroman-6-yl]oxy-2-pyridyl]cyclopropanecarboxamide], in data set [1], the microsomal CLint at 1 μM turned out to be 32.6 µL/min/mg. In addition, the IC50 in data set [2] is 0.191 µM; in data set [5], 0.0741 µM. Besides, in data set [3], the “mPPB (% free)” value was less than 0.1 % free. For the same compound, the “MLM (CLint)” value in data set [4] stood at 277 µL/min/mg.
`c1ccc(-c2c[nH]c(C3COc4ccc(Oc5ccnc(Nc6ccccn6)c5)cc4C3)n2)cc1` (stereo not drawn) [Compound 140, 4-[3-(4-phenyl-1H-imidazol-2-yl)chroman-6-yl]oxy-N-(2-pyridyl)pyridin-2-amine]: the microsomal CLint at 1 μM turned out to be 48.7 µL/min/mg in data set [1] and 81.1 µL/min/mg in data set [4]. Moreover, the IC50 in data set [2] is 5.89 µM; in data set [5], 1.26 µM. The “mPPB (% free)” value in data set [3] was 0.2 % free.
On to `Cc1c[nH]c(-c2cc(Oc3ccc4c(c3)CC(c3nc(-c5ccccc5)c[nH]3)CO4)ccn2)n1` (stereo not drawn) [Compound 143, 2-(4-methyl-1H-imidazol-2-yl)-4-[3-(4-phenyl-1H-imidazol-2-yl)chroman-6-yl]oxy-pyridine], for which the microsomal CLint at 1 μM came out at 36.1 µL/min/mg in data set [1] and 86.1 µL/min/mg in data set [4]. Besides, the IC50 is 0.794 µM in data set [2] and 0.302 µM in data set [5]. The “mPPB (% free)” value in data set [3] is less than 0.1 % free.
Turning to `O=C(Cn1ccnc1)Nc1cc(Oc2ccc3c(c2)CC(c2nc(-c4ccccc4)c[nH]2)CO3)ccn1` (stereo not drawn) [Compound 144], the microsomal CLint at 1 μM was 27.1 µL/min/mg in data set [1] and 29.3 µL/min/mg in data set [4]. For the same compound, the figures for the IC50 in data set [2] and in data set [5] were 0.204 µM and 0.0955 µM, respectively. Besides, the “mPPB (% free)” value in data set [3] is given as 0.8 % free.
In the case of `O=C(CN1CC[C@@H](O)C1)Nc1cc(Oc2ccc3c(c2)CC(c2nc(-c4ccccc4)c[nH]2)CO3)ccn1` (stereo partly drawn) [Compound 145], the microsomal CLint at 1 μM is 57.2 µL/min/mg in data set [1] and 147 µL/min/mg in data set [4]. Also, the IC50 in data set [2] was 0.537 µM; in data set [5] it was 0.331 µM. Moreover, the “mPPB (% free)” value in data set [3] stood at 0.53 % free.

The record behind these values is patent publication US12304912B2, “Fused bicyclic RAF inhibitors and methods for use thereof” (Jazz Pharmaceuticals Ireland Limited, priority 2020, dated 2025).
